Experimental data taken from patent US20250161216A1, “CATIONIC LIPID ANALOGUES, COMPOSITIONS AND USES THEREOF” (GUANGZHOU LIDE BIOMEDICINE TECHNOLOGY CO., LTD., priority 2022, published 2025).

How the values were obtained:
C57BL/6 mice [1] = assay: In vivo expression level of Luciferase-mRNA delivered by intramuscular injection (bioluminescence imaging); details: mRNA-loaded nanoparticles, compounds of Example 2; intramuscular (leg muscle), 5 μg Luciferase-mRNA, 6 hours
Protocol: (§1) Luciferase-mRNA was used as an mRNA model; and the cationic lipid analogues of Examples 1-5 were used to prepare drug-loaded nanoparticles according to the method of Example 6.
(§2) 100 μL of nanoparticles containing 5 μg Luciferase-mRNA or the drug-loaded nanoparticles prepared above were injected into the leg muscles of 6-8 week-old C57BL/6 mice, and 200 μL of 1×PBS solution containing 3 mg D-Luciferin potassium salt was intraperitoneally injected into the mice 6 hours later. After waiting for 10 minutes, an in vivo expression level of the mRNA was evaluated by bioluminescence imaging.

C57BL/6 mice [2] = assay: In vivo expression level of Luciferase-mRNA delivered by intravenous injection (bioluminescence imaging); details: mRNA-loaded nanoparticles, intravenous (tail vein), 5 μg Luciferase-mRNA, 6 hours; for Fluorescence intensity of spleen / Bioluminescence intensity: compounds of Example 2; for Fluorescence intensity of liver: compounds of Example 1
Protocol: as §1
as §2, with “200” for “100”, “tail veins” for “the leg muscles”

CCCCC/C=C\C/C=C\CCCCCCCC(=O)N(CCCCCO)C(C(=O)NCCN(C)CCNC(=O)C(C(C)C)N(CCCCCO)C(=O)CCCCCCC/C=C\C/C=C\CCCCC)C(C)C (centres unmarked) [A1I4R27C18-2]
Local fluorescence intensity (C57BL/6 mice [1]): 1.67E+04

CCCCC/C=C\C/C=C\CCCCCCCC(=O)N(CCCCCCO)C(C(=O)NCCN(C)CCNC(=O)C(C(C)C)N(CCCCCCO)C(=O)CCCCCCC/C=C\C/C=C\CCCCC)C(C)C (centres unmarked) [A1I4R28C18-2]
Local fluorescence intensity (C57BL/6 mice [1]): 1.72E+06

CCCC/C=C\C/C=C\CCCCCCCC(=O)N(C(C(=O)NCCN(C)CCNC(=O)C(C(C)C)N(C(=O)CCCCCCC/C=C\C/C=C\CCCCC)C(C)(CO)CO)C(C)C)C(C)(CO)CO (centres unmarked) [A1I4R29C18-2]
Local fluorescence intensity (C57BL/6 mice [1]): 2.99E+04

CCCCC/C=C\C/C=C\CCCCCCCC(=O)N(C(C(=O)NCCN(C)CCNC(=O)C(C(C)C)N(C(=O)CCCCCCC/C=C\C/C=C\CCCCC)C(CO)(CO)CO)C(C)C)C(O)(CO)CO (centres unmarked) [A1I4R30C18-2]
Local fluorescence intensity (C57BL/6 mice [1]): 2.05E+04

CCCCC/C=C\C/C=C\CCCCCCCC(=O)N(CCCOCC)C(C(=O)NCCN(C)CCNC(=O)C(C(C)C)N(CCCOCC)C(=O)CCCCCCC/C=C\C/C=C\CCCCC)C(C)C (centres unmarked) [A1I4R31C18-2]
Local fluorescence intensity (C57BL/6 mice [1]): 5.21E+04

CCCCC/C=C\C/C=C\CCCCCCCC(=O)N(CCCOC(C)C)C(C(=O)NCCN(C)CCNC(=O)C(C(C)C)N(CCCOC(C)C)C(=O)CCCCCCC/C=C\C/C=C\CCCCC)C(C)C (centres unmarked) [A1I4R32C18-2]
Local fluorescence intensity (C57BL/6 mice [1]): 2.57E+04

CCCC/C=C\C/C=C\CCCCCCCC(=O)N(C(CC)COC)C(C(=O)NCCN(C)CCNC(=O)C(C(C)C)N(C(=O)CCCCCCC/C=C\C/C=C\CCCCC)C(CC)COC)C(C)C (centres unmarked) [A1I4R33C18-2]
Local fluorescence intensity (C57BL/6 mice [1]): 1.02E+05

CCCC/C=C\C/C=C\CCCCCCCC(=O)N(CC(OC)OC)C(C(=O)NCCN(C)CCNC(=O)C(C(C)C)N(CC(OC)OC)C(=O)CCCCCCC/C=C\C/C=C\CCCCC)C(C)C (centres unmarked) [A1I4R34C18-2]
Local fluorescence intensity (C57BL/6 mice [1]): 5.58E+05

CCCC/C=C\C/C=C\CCCCCCCC(=O)N(CC1CCCO1)C(C(=O)NCCN(C)CCNC(=O)C(C(C)C)N(CC1CCCO1)C(=O)CCCCCCC/C=C\C/C=C\CCCCC)C(C)C (centres unmarked) [A1I4R35C18-2]
Local fluorescence intensity (C57BL/6 mice [1]): 3.38E+05

CCCC/C=C\C/C=C\CCCCCCCC(=O)N(CCOCCO)C(C(=O)NCCN(C)CCNC(=O)C(C(C)C)N(CCOCCO)C(=O)CCCCCCC/C=C\C/C=C\CCCCC)C(C)C (centres unmarked) [A1I4R36C18-2]
Local fluorescence intensity (C57BL/6 mice [1]): 5.68E+04

CCCC/C=C\C/C=C\CCCCCCCC(=O)N(CCCO)C(C(=O)NCCN(C)CCNC(=O)C(C(C)C)N(CCCO)C(=O)CCCCCCC/C=C\C/C=C\CCCCC)C(C)C (centres unmarked) [A1I4R42C18-2]
Local fluorescence intensity (C57BL/6 mice [1]): 7.04E+04

CCCC/C=C\C/C=C\CCCCCCCC(=O)N(CCCOC)C(C(=O)NCCN(C)CCNC(=O)C(C(C)C)N(CCCOC)C(=O)CCCCCCC/C=C\C/C=C\CCCCC)C(C)C (centres unmarked) [A1I4R43C18-2]
Local fluorescence intensity (C57BL/6 mice [1]): 6.57E+04

CCCCC/C=C\C/C=C\CCCCCCCC(=O)N(CC1CCOCC1)C(C(=O)NCCN(C)CCNC(=O)C(C(C)C)N(CC1CCOCC1)C(=O)CCCCCCC/C=C\C/C=C\CCCCC)C(C)C (centres unmarked) [A1I4R48C18-2]
Local fluorescence intensity (C57BL/6 mice [1]): 8.55E+04

CCCCC/C=C\C/C=C\CCCCCCCC(=O)N(CCCN(C)C)C(C(=O)NCCN(C)CCNC(=O)C(C1CCCCC1)N(CCCN(C)C)C(=O)CCCCCCC/C=C\C/C=C\CCCCC)C1CCCCC1 (centres unmarked) [A23I4R2C18-2]
Fluorescence intensity of spleen (C57BL/6 mice [2]): 2.18E+03

CCCCCCCCCCCCCCCCCC(=O)N(CCCN(C)C)C(C(=O)NCCN(C)CCNC(=O)C(C1CCCCC1)N(CCCN(C)C)C(=O)CCCCCCCCCCCCCCCCC)C1CCCCC1 (centres unmarked) [A23I4R2C18]
Bioluminescence intensity (C57BL/6 mice [2]): 5.71E+02

CCCCCCCC/C=C\CCCCCCCC(=O)N(CCN1CCCCCC1)C(C(=O)NCCN(C)CCNC(=O)C(C1CCCCC1)N(CCN1CCCCCC1)C(=O)CCCCCCC/C=C\CCCCCCCC)C1CCCCC1 (centres unmarked) [A23I4R13C18-1]
Bioluminescence intensity (C57BL/6 mice [2]): 6.61E+02

CCCCC/C=C\C/C=C\CCCCCCCC(=O)N(CCN1CCCCCC1)C(C(=O)NCCN(C)CCNC(=O)C(C1CCCCC1)N(CCN1CCCCCC1)C(=O)CCCCCCC/C=C\C/C=C\CCCCC)C1CCCCC1 (centres unmarked) [A23I4R13C18-2]
Fluorescence intensity of spleen (C57BL/6 mice [2]): 9.46E+03

CCCCCCCCCCCCCCCCCC(=O)N(CCN1CCCCCC1)C(C(=O)NCCN(C)CCNC(=O)C(C1CCCCC1)N(CCN1CCCCCC1)C(=O)CCCCCCCCCCCCCCCCC)C1CCCCC1 (centres unmarked) [A23I4R13C18]
Bioluminescence intensity (C57BL/6 mice [2]): 7.89E+02

CCCCCCCC/C=C\CCCCCCCC(=O)N(CCC)C(C(=O)NCCN(C)CCNC(=O)C(C1CCCCC1)N(CCC)C(=O)CCCCCCC/C=C\CCCCCCCC)C1CCCCC1 (centres unmarked) [A23I4R21C18-1]
Fluorescence intensity of spleen (C57BL/6 mice [2]): 9.63E+04

CCCCC/C=C\C/C=C\CCCCCCCC(=O)N(CCC)C(C(=O)NCCN(C)CCNC(=O)C(C1CCCCC1)N(CCC)C(=O)CCCCCCC/C=C\C/C=C\CCCCC)C1CCCCC1 (centres unmarked) [A23I4R21C18-2]
Fluorescence intensity of spleen (C57BL/6 mice [2]): 6.07E+04

CCCCCCCCCCCCCCCCCC(=O)N(CCC)C(C(=O)NCCN(C)CCNC(=O)C(C1CCCCC1)N(CCC)C(=O)CCCCCCCCCCCCCCCCC)C1CCCCC1 (centres unmarked) [A23I4R21C18]
Fluorescence intensity of spleen (C57BL/6 mice [2]): 5.43E+03

CCCCC/C=C\C/C=C\CCCCCCCC(=O)N(CCOC)C(C(=O)NCCN(C)CCNC(=O)C(C1CCCCC1)N(CCOC)C(=O)CCCCCCC/C=C\C/C=C\CCCCC)C1CCCCC1 (centres unmarked) [A23I4R23C18-2]
Fluorescence intensity of spleen (C57BL/6 mice [2]): 1.04E+05

CCCCCCCC/C=C\CCCCCCCC(=O)N(CCN(C)C)C(C(=O)NCCCCCCCCCCCCCCCCCC)C1CCCCC1 (centres unmarked) [A23I18R1C18-1]
Fluorescence intensity of liver (C57BL/6 mice [2]): 5.74E+06

CCCCC/C=C\C/C=C\CCCCCCCC(=O)N(CCN(C)C)C(C(=O)NCCCCCCCCCCCCCCCCCC)C1CCCCC1 (centres unmarked) [A23I18R1C18-2]
Fluorescence intensity of liver (C57BL/6 mice [2]): 8.25E+06

CC/C=C\C/C=C\C/C=C\CCCCCCCC(=O)N(CCN(C)C)C(C(=O)NCCCCCCCCCCCCCCCCCC)C1CCCCC1 (centres unmarked) [A23I18R1C18-3]
Fluorescence intensity of liver (C57BL/6 mice [2]): 4.14E+06

CCCCCCCCCCCCCCCCCCNC(=O)C(C1CCCCC1)N(CCN(C)C)C(=O)CCCCCCCCCCCCCCCCC (centres unmarked) [A23I18R1C18]
Fluorescence intensity of liver (C57BL/6 mice [2]): 9.09E+04

CCCCCCCCCCCCC#CC#CCCCCCCCCC(=O)N(CCN(C)C)C(C(=O)NCCCCCCCCCCCCCCCCCC)C1CCCCC1 (centres unmarked) [A23I18R1C23]
Fluorescence intensity of liver (C57BL/6 mice [2]): 6.11E+06

CCCCCCCC/C=C\CCCCCCCC(=O)N(CCCN(C)C)C(C(=O)NCCCCCCCCCCCCCCCCCC)C1CCCCC1 (centres unmarked) [A23I18R2C18-1]
Fluorescence intensity of liver (C57BL/6 mice [2]): 1.29E+06

CC/C=C\C/C=C\C/C=C\CCCCCCCC(=O)N(CCCN(C)C)C(C(=O)NCCCCCCCCCCCCCCCCCC)C1CCCCC1 (centres unmarked) [A23I18R2C18-3]
Fluorescence intensity of liver (C57BL/6 mice [2]): 9.49E+05

CCCCCCCCCCCCC#CC#CCCCCCCCCC(=O)N(CCCN(C)C)C(C(=O)NCCCCCCCCCCCCCCCCCC)C1CCCCC1 (centres unmarked) [A23I18R2C23]
Fluorescence intensity of liver (C57BL/6 mice [2]): 2.37E+06

CCCCCCCC/C=C\CCCCCCCC(=O)N(CCCN(CC)CC)C(C(=O)NCCCCCCCCCCCCCCCCCC)C1CCCCC1 (centres unmarked) [A23I18R3C18-1]
Fluorescence intensity of liver (C57BL/6 mice [2]): 1.26E+06

CCCCC/C=C\C/C=C\CCCCCCCC(=O)N(CCCN(CC)CC)C(C(=O)NCCCCCCCCCCCCCCCCCC)C1CCCCC1 (centres unmarked) [A23I18R3C18-2]
Fluorescence intensity of liver (C57BL/6 mice [2]): 4.86E+06

CC/C=C\C/C=C\C/C=C\CCCCCCCC(=O)N(CCCN(CC)CC)C(C(=O)NCCCCCCCCCCCCCCCCCC)C1CCCCC1 (centres unmarked) [A23I18R3C18-3]
Fluorescence intensity of liver (C57BL/6 mice [2]): 1.13E+06

CCCCCCCCCCCCCCCCCCNC(=O)C(C1CCCCC1)N(CCCN(CC)CC)C(=O)CCCCCCCCCCCCCCCCC (centres unmarked) [A23I18R3C18]
Fluorescence intensity of liver (C57BL/6 mice [2]): 2.14E+03

CCCCCCCCCCCCC#CC#CCCCCCCCCC(=O)N(CCCN(CC)CC)C(C(=O)NCCCCCCCCCCCCCCCCCC)C1CCCCC1 (centres unmarked) [A23I18R3C23]
Fluorescence intensity of liver (C57BL/6 mice [2]): 7.89E+05
